The values below are quoted from earlier work in patent EP2839829B1 (Korea United Pharm. Inc., priority 2012, dated 2013).

For this data set the following is noted: in the body.

In the case of `OC[C@@H](O)CN1CCN(c2ccccc2)CC1` [levodropropizine], the half life result is given as “about 1 hr”.
